# Test results as given in patent EP4759812A1 (Guangzhou Lupeng Pharmaceutical Co., Ltd., priority 2023, dated 2025).
# What was measured:
# Type in all cases: physicochemical
# [1] = Influencing factor stability: light exposure test; details: Visible light 4500 Lux ± 500 Lux; for Crystal form: ultraviolet light 1.7 W*h/m^2 (25°C, RH 60%±5%), XRPD; for Purity: HPLC, starting purity: Crystal form VI 99.32%, Amorphous form 98.80%, Crystal form XIII 99.01%
# Experimental: (§1) The crystal form results under different conditions were identified by XRPD analysis, and the purity results under different conditions were identified by HPLC analysis.
# (§2) The above samples were then taken on days 5, 10, 15, and 30, respectively. Their crystal forms were tested by adopting X-ray powder diffraction (XRPD), and the sample purities were tested by adopting HPLC. […]
# [2] = Morphological comparison under polarizing light microscope; details: for dispersibility and flowability / agglomeration and caking: judged from polarizing light microscope images; for crystal morphology: polarizing light microscope
# [3] = Dynamic vapor sorption (DVS) experiment; details: for Adsorption weight gain (80% RH) / Adsorption weight gain (95% RH): DVS; for Hygroscopicity: class per Chinese Pharmacopoeia 2010 guidance (25±0.2°C, 80% relative humidity)
# [4] = Stability test in pure water and buffer solution (suspension, XRPD); details: 25°C, stirred 24 h, solid by XRPD
# Experimental: The suspensions were stirred at 25°C for 24 h, and filtered to obtain the solids. Samples were taken for XRPD measurement. […]
# [5] = Influencing factor stability: high-humidity test; details: Temperature 25°C, relative humidity 92.5±5%; for Purity: HPLC, starting purity: Crystal form VI 99.32%, Amorphous form 98.80%, Crystal form XIII 99.01%; for Crystal form: XRPD
# Experimental: as §1, §2
# [6] = Influencing factor stability: high-temperature test; details: Temperature 60°C; for Purity: HPLC, starting purity: Crystal form VI 99.32%, Amorphous form 98.80%, Crystal form XIII 99.01%; for Crystal form: XRPD
# Experimental: as §1, §2
# [7] = ultraviolet light 1.7 W*h/m^2, 5 days
# [8] = ultraviolet light 1.7 W*h/m^2, 10 days
# [9] = ultraviolet light 1.7 W*h/m^2, 15 days
# [10] = ultraviolet light 1.7 W*h/m^2, 30 days
Crystal form ([1]; 5 days),Crystal form ([1]; 10 days),Crystal form ([1]; 15 days),Crystal form ([1]; 30 days),"Purity [1, 7] [%]","Purity [1, 8] [%]","Purity [1, 9] [%]","Purity [1, 10] [%]",dispersibility and flowability / agglomeration and caking [2],crystal morphology [2],Adsorption weight gain (80% RH) [3] [%],Adsorption weight gain (95% RH) [3] [%],Suspension result ([4]; Pure water),Suspension result ([4]; pH 4.5 buffer solution),Suspension result ([4]; pH 6.8 buffer solution),Purity ([5]; 5 days) [%],Crystal form ([5]; 5 days),Purity ([5]; 10 days) [%],Crystal form ([5]; 10 days),Structure (SMILES),Hygroscopicity [3],further results
Amorphous form,Amorphous form,Amorphous form,Amorphous form,98.46,97.98,97.29,96.55,significant agglomeration and caking,irregular glassy state,4.55,6.76,Transform into other crystal forms,Transform into other crystal forms,Transform into other crystal forms,98.72,Amorphous form,98.50,Amorphous form,"C=CC(=O)Nc1cc(Nc2nc(-c3ccnc(N4CCn5c(cc6c5CC(C)(C)C6)C4=O)c3CO)cn(C)c2=O)ccc1N1CCN(C2CCOCC2)C[C@@H]1C [Amorphous form, (S)-N-(5-((6-(2-(7,7-dimethyl-1-oxo-1,3,4,6,7,8-hexahydro-2H-cyclopenta[4,5]pyrrolo[1,2-a]pyrazin-2-yl)-3-(hydroxymethyl)pyridin-4-yl)-4-methyl-3-oxo-3,4-dihydropyrazin-2-yl)amino)-2-(2-methyl-4-(tetrahydro-2H-pyran-4-yl)piperazin-1-yl)phenyl)acrylamide]",Hygroscopic (hygroscopic weight gain is less than 15% but not less than 2%),Adsorption weight gain (80% RH) ([3]; listed as amorphous form): about 4.55%; Adsorption weight gain (95% RH) ([3]; listed as amorphous form): about 6.76%; Hygroscopicity ([3]; listed as amorphous form): hygroscopic; Purity ([5]; 15 days): 98.38%; Crystal form ([5]; 15 days): Amorphous form; Purity ([5]; 30 days): 98.21%; Crystal form ([5]; 30 days): Amorphous form; Purity ([6]; 5 days): 98.61%; Crystal form ([6]; 5 days): Amorphous form; Purity ([6]; 10 days): 98.44%; Crystal form ([6]; 10 days): Amorphous form; Purity ([6]; 15 days): 98.39%; Crystal form ([6]; 15 days): Amorphous form; Purity ([6]; 30 days): 97.88%; Crystal form ([6]; 30 days): Amorphous form
,,,,,,,,,,,,,Transform into other crystal forms,Transform into other crystal forms,,,,,"C=CC(=O)Nc1cc(Nc2nc(-c3ccnc(N4CCn5c(cc6c5CC(C)(C)C6)C4=O)c3CO)cn(C)c2=O)ccc1N1CCN(C2CCOCC2)C[C@@H]1C [Crystal form V, (S)-N-(5-((6-(2-(7,7-dimethyl-1-oxo-1,3,4,6,7,8-hexahydro-2H-cyclopenta[4,5]pyrrolo[1,2-a]pyrazin-2-yl)-3-(hydroxymethyl)pyridin-4-yl)-4-methyl-3-oxo-3,4-dihydropyrazin-2-yl)amino)-2-(2-methyl-4-(tetrahydro-2H-pyran-4-yl)piperazin-1-yl)phenyl)acrylamide]",,
Crystal form XIII,Crystal form XIII,Crystal form XIII,Crystal form XIII,98.65,98.32,97.76,97.15,relatively poor flowability,fine,6.53,14.45,Transform into other crystal forms,Transform into other crystal forms,Transform into other crystal forms,98.92,Crystal form XIII,98.86,Crystal form XIII,"C=CC(=O)Nc1cc(Nc2nc(-c3ccnc(N4CCn5c(cc6c5CC(C)(C)C6)C4=O)c3CO)cn(C)c2=O)ccc1N1CCN(C2CCOCC2)C[C@@H]1C [Crystal form XIII, (S)-N-(5-((6-(2-(7,7-dimethyl-1-oxo-1,3,4,6,7,8-hexahydro-2H-cyclopenta[4,5]pyrrolo[1,2-a]pyrazin-2-yl)-3-(hydroxymethyl)pyridin-4-yl)-4-methyl-3-oxo-3,4-dihydropyrazin-2-yl)amino)-2-(2-methyl-4-(tetrahydro-2H-pyran-4-yl)piperazin-1-yl)phenyl)acrylamide]",Hygroscopic (hygroscopic weight gain is less than 15% but not less than 2%),Adsorption weight gain (80% RH) ([3]; listed as crystal form XIII): about 6.53%; Adsorption weight gain (95% RH) ([3]; listed as crystal form XIII): about 14.45%; Hygroscopicity ([3]; listed as crystal form XIII): hygroscopic; Purity ([5]; 15 days): 98.81%; Crystal form ([5]; 15 days): Crystal form XIII; Purity ([5]; 30 days): 98.77%; Crystal form ([5]; 30 days): Crystal form XIII; Purity ([6]; 5 days): 98.79%; Crystal form ([6]; 5 days): Transform into other crystal forms; Purity ([6]; 10 days): 98.54%; Crystal form ([6]; 10 days): Transform into other crystal forms; Purity ([6]; 15 days): 98.20%; Crystal form ([6]; 15 days): Transform into other crystal forms; Purity ([6]; 30 days): 97.85%; Crystal form ([6]; 30 days): Transform into other crystal forms
